For the assay, the target named is T1, CB1 receptor of liver fibrosis cell (Mus musculus, UniProt P47746).
T1 construct: from tissue; host or cells: liver of living mice (one fibrotic, one normal), in vivo imaging
The assay is described as follows: fluorescence imaging of a mouse having liver fibrosis and a normal mouse with Tocrifluor. In kind it is in vivo. The following applies: for a 543 nm light; FIG. 3B and FIG. 3C.

T1 sequence (P47746 whole entry): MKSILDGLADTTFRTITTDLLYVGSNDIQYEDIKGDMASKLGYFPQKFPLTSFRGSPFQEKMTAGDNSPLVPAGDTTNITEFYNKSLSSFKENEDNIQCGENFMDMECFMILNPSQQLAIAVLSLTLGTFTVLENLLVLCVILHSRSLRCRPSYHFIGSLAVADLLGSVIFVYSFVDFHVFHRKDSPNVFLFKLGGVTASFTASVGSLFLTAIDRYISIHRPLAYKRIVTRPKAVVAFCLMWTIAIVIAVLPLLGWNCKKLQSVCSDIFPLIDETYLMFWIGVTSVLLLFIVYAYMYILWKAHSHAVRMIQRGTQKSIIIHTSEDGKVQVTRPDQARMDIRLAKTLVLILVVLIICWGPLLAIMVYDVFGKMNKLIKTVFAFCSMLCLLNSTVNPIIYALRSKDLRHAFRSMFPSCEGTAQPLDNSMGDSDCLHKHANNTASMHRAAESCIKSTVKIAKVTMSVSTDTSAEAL

As for “N-(Piperidin-1-yl)-5-(4-(4-(3-(5-carboxamidotetramethyl rhodaminyl)propyl))phenyl)-1-(2,4-dichlorophenyl)-4-methyl-1H-pyrazole-3-carboxamide [Tocrifluor]”, the “fluorescence found at wavelength” value was found to be 590 nm.

The record behind these values is patent US20120288442A1, “Nuclear Imaging Method Using Molecular Target Detection Agent for Liver Fibrosis” (ATOMIC ENERGY COUNCIL-INSTITUTE OF NUCLEAR ENERGY RESEARCH, priority 2011, published 2012).
